According to US9931351B2, “Method for improving leptin resistance” (Kyoto University, priority 2013, dated 2018):

What was measured:
Format in all cases: in vivo
[1] = test system: leptin-deficient ob/ob mice; test: Test Example 2: effects to improve metabolism in leptin-deficient ob/ob mice; conditions: standard diet, 50 mg/kg/day intraperitoneal once a day, four weeks; for weight of the adipose tissues: epididymal; for nonesterified fatty acid levels / total cholesterol levels / triglyceride levels: plasma
Procedure: Ob/ob mice cannot produce leptin due to a mutation in the leptin gene (Zhang et al. Nature 372: 425-432, 1994). Eight-week old male ob/ob mice, purchased from CHARLES RIVER LABORATORIES JAPAN, INC., were divided into two treatment groups: “Vehicle (V)” and “Compound 57”. The mice were kept for four weeks with ad libitum feeding of standard diet (SD), and the body weight and the food intake of the mice were measured. The vehicle and Compound 57 were administered to the mice by intraperitoneal injection once a day. The dosage of Compound 57 was 50 mg/kg/day. After the four weeks the mice were sacrificed and blood, epididymal adipose tissues, and the liver were collected. The weight of the adipose tissues, the liver weight, the liver triglyceride levels, and the plasma levels of glucose, insulin, total cholesterol (T-chol), triglyceride (TG) and nonesterified fatty acid (NEFA) were measured (n=5 for each group). The equivalent dosage of Compound 32 was tested in a similar manner (n=5 for each group).

[2] = test system: wild type mice having diet-induced obesity; test: Test Example 4: effects to improve metabolism in wild type mice having diet-induced obesity caused by a high fat diet; conditions: wild type mice obese after four-week high fat diet, continued high fat diet, 50 mg/kg/day intraperitoneal once a day, further four weeks
Procedure: Eight-week old male wild type mice and transgenic mice overexpressing leptin (LepTg) (see Test Example 1) were divided into two groups, respectively (n=4 and 12), and kept for four weeks under a standard diet (SD) or a high fat diet (HFD) condition. All the mice fed with the standard diet for the four weeks were assigned to the group “vehicle (V)” and fed with the standard diet for further four weeks, and then the body weight and the food intake of the mice were measured. The mice fed with the high fat diet for the four weeks were divided into three groups: “vehicle (V)”, “Compound 57”, and “Compound 32”, and fed with the high fat diet for further four weeks, and then the body weight and the food intake of the mice were measured. The vehicle, Compound 57, and Compound 32 were administered to the mice by intraperitoneal injection once a day. The each dosage of Compounds 57 and 32 was 50 mg/kg/day. Finally the mice were sacrificed and blood, epididymal adipose tissues, and the liver were collected. The weight of the adipose tissues, the liver weight, and the plasma levels of glucose and triglyceride were measured (n=4 for each group).

[3] = test system: wild type mice under the high fat diet condition; test: Test Example 1: effects to improve metabolism in wild type mice under a high fat diet condition; conditions: 60% high fat diet, 50 mg/kg/day intraperitoneal once a day, four weeks; for weight of the adipose tissues: epididymal
Procedure: Eight-week old male wild type mice and transgenic mice overexpressing leptin (LepTg) (Ogawa et al. Diabetes 48: 1822-1829, 1999, prepared in Department of Endocrinology and Metabolism, Kyoto University) were divided into three treatment groups, respectively: “standard diet (SD)+vehicle (V)”, “60% high fat diet (HFD)+vehicle”, and “60% high fat diet+Compound 57”. The mice were kept for four weeks with ad libitum feeding, and the body weight and the food intake of the mice were measured. The vehicle and Compound 57 were administered to the mice by intraperitoneal injection once a day. The dosage of Compound 57 was 50 mg/kg/day. After the four weeks the mice were sacrificed and blood, epididymal adipose tissues, and the liver were collected. The weight of the adipose tissues, the liver weight, the liver triglyceride levels, and the plasma levels of glucose, insulin, total cholesterol (T-chol), triglyceride (TG), and nonesterified fatty acid (NEFA) were measured (n=5 for each group). The equivalent dosage of Compound 32 was tested in a similar manner (n=5 for each group).

A-ZIP/F-1 mice = test: Test Example 3: effects to improve metabolism in A-ZIP/F-1 mice, a model of generalized lipodystrophy; conditions: standard diet, 50 mg/kg/day intraperitoneal once a day, four weeks; for level of nonesterified fatty acid / level of total cholesterol / level of triglyceride: plasma
Source text: A-ZIP/F-1 mice, which are used as a model of generalized lipodystrophy, have substantially no white adipocyte and thus cannot produce leptin (Moitra et al. Genes Dev 12: 3168-3181, 1998). Eight-week old male A-ZIP/F-1 mice, gifted from Dr. Reitman of National Institutes of Health, were divided into two treatment groups: “Vehicle (V)” and “Compound 57”. The mice were kept for four weeks with ad libitum feeding of standard diet (SD), and the body weight and the food intake of the mice were measured. The vehicle and Compound 57 were administered to the mice by intraperitoneal injection once a day. The dosage of Compound 57 was 50 mg/kg/day. After the four weeks the mice were sacrificed and blood, epididymal adipose tissues, and the liver were collected. The weight of the adipose tissues, the liver weight, the liver triglyceride levels, the plasma levels of glucose, insulin, total cholesterol (T-chol), triglyceride (TG) and nonesterified fatty acid (NEFA) were measured (n=5 for each group). The equivalent dosage of Compound 32 was tested in a similar manner (n=5 for each group).

Structure (SMILES) | body weight [1] | food intake [1] | liver triglyceride levels [1] | liver weight [1] | plasma insulin levels [1] | random plasma glucose levels [1] | weight of the adipose tissues [1] | nonesterified fatty acid levels [1] | total cholesterol levels [1] | triglyceride levels [1] | blood level of glucose [2] | blood level of triglyceride [2] | body weight [2] | body weight [3] | food intake [3] | liver triglyceride levels [3] | liver weight [3] | plasma insulin levels [3] | plasma level of nonesterified fatty acid [3] | plasma level of total cholesterol [3] | other results
Cc1cc(F)ccc1-c1ccc(/N=N/c2cc(S(=O)(=O)[O-])c3ccccc3c2N)cn1.[Na+] [Compound 32, 4-amino-3-[6-(4-fluoro-2-methylphenyl)pyridine-3-ylazo]naphthalene-1-sulfonic acid sodium salt] | did not | did not change | did not change | did not change | did not change | did not change | did not change | did not change | did not change | did not change | decreased | decreased | decreased | did not increase | did not increase | did not increase | did not increase | did not increase | did not increase | did not increase | plasma level of triglyceride [3]: did not increase; random plasma glucose levels [3]: did not increase; weight of the adipose tissues [3]: did not increase; body weight (A-ZIP/F-1 mice): did not; food intake (A-ZIP/F-1 mice): did not change; liver triglyceride levels (A-ZIP/F-1 mice): did not change; liver weight (A-ZIP/F-1 mice): did not change; plasma insulin levels (A-ZIP/F-1 mice): did not change; random plasma glucose levels (A-ZIP/F-1 mice): did not change; level of nonesterified fatty acid (A-ZIP/F-1 mice): did not change; level of total cholesterol (A-ZIP/F-1 mice): did not change; level of triglyceride (A-ZIP/F-1 mice): did not change
Nc1c(/N=N/c2ccc(-c3cccc4c3sc3ccccc34)nc2)cc(S(=O)(=O)[O-])c2ccccc12.[Na+] [Compound 57, 4-amino-3-(6-dibenzothiophene-4-ylpyridine-3-ylazo)naphthalene-1-sulfonic acid sodium salt] | decreased | did not change | decreased | decreased | did not change | did not change | decreased | decreased | decreased | did not clearly change | decreased | decreased | decreased | did not increase | did not increase | did not increase | did not increase | did not increase | did not increase | did not increase | food intake [2]: significantly decreased; plasma level of triglyceride [3]: did not increase; random plasma glucose levels [3]: did not increase; weight of the adipose tissues [3]: did not increase; body weight (A-ZIP/F-1 mice): slightly decreased; food intake (A-ZIP/F-1 mice): did not change; liver triglyceride levels (A-ZIP/F-1 mice): decreased; liver weight (A-ZIP/F-1 mice): decreased; plasma insulin levels (A-ZIP/F-1 mice): did not change; random plasma glucose levels (A-ZIP/F-1 mice): did not change; level of nonesterified fatty acid (A-ZIP/F-1 mice): decreased; level of total cholesterol (A-ZIP/F-1 mice): decreased; level of triglyceride (A-ZIP/F-1 mice): decreased
